Experimental findings from patent US7812039B2, “Drugs for chronic pains” (Nicox S.A., priority 2001, dated 2010) are described below.

Assay [1] deals with Washed human platelets. Kind of assay: NO generation from NO-donors with platelets, chemiluminescence. In kind it is cell-based. The following applies: incubation of 100 μM, 5 minutes. How it is done: (§1) The test relates to the nitric oxide generation from the NO-donors, for example nitroglycerin, niocorandil, nitroprussiate, etc., in the presence of endothelial cells (method a) or platelets (method b). • a) Endothelial Cells • Human cells of the umbilical vein, cultured on plates, having a 10^3 density cells/well were incubated for 5 minutes with scalar concentrations of NO-donor (1-100 μg/ml). The incubation medium (physiologic solution, for example Tyrode) was then analyzed to determine the capability to generate NO of the compound under test, by means of: • 1) nitric oxide detection by chemiluminescence; • 2) cGMP determination (cyclic GMP n° 2715 of the above mentioned Merck). • For the analysis by chemiluminescence, an amount equal to 100 μl was injected in the reaction chamber of a chemiluminescence analyzer containing glacial acetic acid and potassium iodide. The nitrites/nitrates present in the medium, under these conditions are converted into NO which is then detected after reaction with ozone, which produces light. In the equipments which measure the chemiluminescence, the luminescence produced is directly proportional to the generated NO levels and can be measured by a suitable photomultiplying unit of a chemiluminescence analyzer. The photomultiplier converts the incident light in electric voltage, which is quantitatively recorded. […]

Assay [2] deals with Human cells of the umbilical vein. Kind of assay: NO generation from NO-donors with endothelial cells, chemiluminescence. The settings on record: incubation of 100 μM, 5 minutes. In kind it is cell-based. How it is done:
as §1

On to `O=C(NCCO[N+](=O)[O-])c1cccnc1` [nicorandil], for which the “amount of NO generated” value was 35 µM in assay [1] and “about 10 μM” in assay [2].
